Like-named read-outs stand apart in the source and are kept apart here. Each block holds one compound with its values, some of them ahead of it.
How the values were obtained:
human PI3Kβ = target: T1, human PI3Kβ (Homo sapiens, UniProt P42338); assay: Biochemical PI3Kbeta (KinaseGlo luminescent kinase assay); settings: 1 μM ATP, mean of n measurements, read-out: PI3Kb/ IC50
T1 construct: made in house
Experimental: (§1) Test compounds were dissolved in DMSO (10 mM) and transferred into 1.4 mL flat bottom or V-shaped Matrix tubes carrying a unique 2D matrix chip by individual Novartis compound hubs. The numbers of these chips were distinctively linked to Novartis Pharma Numbers. The stock solutions were stored at −20° C. if not used immediately. For the test procedure the vials were defrosted and identified by a scanner whereby a working sheet was generated that guided the subsequent working steps.
(§2) Compounds were either manually diluted in DMSO for individual experiments (96 wells enabling 10 cpds at 8 (single points) concentrations) as described in or prepared as described below if tested for profiling in 384-wells. This format enabled the assay of maximally 40 individual test compounds at 8 concentrations (single points) including 4 reference compounds. The dilution protocol included the production of “pre-dilution plates”, “master plates” and “assay plates”.
(§3) 96 polypropylene well plates were used as pre-dilution plates. A total of 4 pre-dilution plates were prepared including 10 test compounds each on the plate positions A1-A10, one standard compound at A11 and one DMSO control at A12. Programs have been written to run these pipetting steps on the HamiltonSTAR robots.
(§4) Identical “assay plates” were then prepared by pipetting 50 nL each of compound dilutions of the “master plates” into 384-well “assay plates”. The compounds were mixed with 4.5 μL of assays components plus 4.5 μL enzyme corresponding to a 1:181 dilution enabling the final concentration of 10, 3.0, 1.0, 0.3, 0.1, 0.03, 0.01 and 0.003 μM, respectively. The preparation of the “master plates” was handled by the Matrix PlateMate Plus robot and replication of “assay plates” by the HummingBird robot.
(§5) Catalytically active human PI3Kα, PI3Kβ, PI3Kδ, and mTOR were cloned, expressed and purified as described (Maira S M, Stauffer F, Brueggen J, Furet P, Schnell C, Fritsch C, Brachmann S, Chène P, de Pover A, Schoemaker K, Fabbro D, Gabriel D, Simonen M, Murphy L, Finan P, Sellers W, García-Echeverría C (2008), Mol Cancer Ther. 7:1851-63 and Maira S M, Pecchi S, Brueggen J, Huh K, Schnell C, Fritsch C, Nagel T, Wiesmann M, Brachmann S, Dorsch M, Chène P, Schoemaker K, De Pover A, Menezes D, Fabbro D, Sellers W, García-Echeverría C, Voliva C F (2011), Mol. Cancer Ther. accepted).
(§6) The luminescence-based ATP detection reagent KinaseGlo was obtained from Promega, (Cat. No. V6714, Lot No. 236161) through Catalys, Wallisellen, Switzerland. (L-alpha-phosphatidylinositol (PI), Liver, Bovine) were obtained from Avanti Polar Lipid (Cat. No. 840042C, Lot#LPI-274), Phosphatidylinositol-4,5-bisphosphate (PIP(4,5)2 (Avanti, Cat. No. 840046×) or L-α-phosphatidylinositol (PI) was obtained from Avanti Polar Lipid (Cat. No. 840042C, Lot#LPI-274). L-α-Phosphatidylserine (PS) was from Avanti Polar Lipid (Cat. No. 840032C), n-OctylGlucoside Avanti Polar Lipid (Cat. No. 10634425001). Luminescence is a well established readout to determine ATP concentrations and can thus be used to follow the activity of many kinases regardless of their substrate. The Kinase Glo Luminescent Kinase Assay (Promega, Madison/Wis., USA) is a homogeneous HTS method of measuring kinase activity by quantifying the amount of ATP remaining in solution following a kinase reaction.
(§7) 50 nL of compound dilutions were dispensed onto black 384-well low volume Non Binding Styrene (NBS) plates (Costar Cat. No. NBS#3676) as described in section 8.2. L-α-phosphatidylinositol (PI), provided as 10 mg/ml solution in methanol, was transferred into a glass tube and dried under nitrogen beam. It was then resuspended in 3% OctylGlucoside by vortexing and stored at 4° C. 5 μL of a mix of PI/OG with the PI3Ka and Pi3Kb subtypes were added. Kinase reactions were started by addition of 5 μl of ATP-mix containing in a final volume 10 μL 10 mM TRIS-HCl pH 7.5, 3 mM MgCl2, 50 mM NaCl, 0.05% CHAPS, 1 mM DTT and 1 μM ATP, and occurred at room temperature.

human PI3Kα = target: T2, human PI3Kα (Homo sapiens, UniProt P42336); assay: Biochemical PI3Kalpha (KinaseGlo luminescent kinase assay)
T2 construct: made in house
T2 sequence (P42336 with tags, fused parts or gaps limits assumed): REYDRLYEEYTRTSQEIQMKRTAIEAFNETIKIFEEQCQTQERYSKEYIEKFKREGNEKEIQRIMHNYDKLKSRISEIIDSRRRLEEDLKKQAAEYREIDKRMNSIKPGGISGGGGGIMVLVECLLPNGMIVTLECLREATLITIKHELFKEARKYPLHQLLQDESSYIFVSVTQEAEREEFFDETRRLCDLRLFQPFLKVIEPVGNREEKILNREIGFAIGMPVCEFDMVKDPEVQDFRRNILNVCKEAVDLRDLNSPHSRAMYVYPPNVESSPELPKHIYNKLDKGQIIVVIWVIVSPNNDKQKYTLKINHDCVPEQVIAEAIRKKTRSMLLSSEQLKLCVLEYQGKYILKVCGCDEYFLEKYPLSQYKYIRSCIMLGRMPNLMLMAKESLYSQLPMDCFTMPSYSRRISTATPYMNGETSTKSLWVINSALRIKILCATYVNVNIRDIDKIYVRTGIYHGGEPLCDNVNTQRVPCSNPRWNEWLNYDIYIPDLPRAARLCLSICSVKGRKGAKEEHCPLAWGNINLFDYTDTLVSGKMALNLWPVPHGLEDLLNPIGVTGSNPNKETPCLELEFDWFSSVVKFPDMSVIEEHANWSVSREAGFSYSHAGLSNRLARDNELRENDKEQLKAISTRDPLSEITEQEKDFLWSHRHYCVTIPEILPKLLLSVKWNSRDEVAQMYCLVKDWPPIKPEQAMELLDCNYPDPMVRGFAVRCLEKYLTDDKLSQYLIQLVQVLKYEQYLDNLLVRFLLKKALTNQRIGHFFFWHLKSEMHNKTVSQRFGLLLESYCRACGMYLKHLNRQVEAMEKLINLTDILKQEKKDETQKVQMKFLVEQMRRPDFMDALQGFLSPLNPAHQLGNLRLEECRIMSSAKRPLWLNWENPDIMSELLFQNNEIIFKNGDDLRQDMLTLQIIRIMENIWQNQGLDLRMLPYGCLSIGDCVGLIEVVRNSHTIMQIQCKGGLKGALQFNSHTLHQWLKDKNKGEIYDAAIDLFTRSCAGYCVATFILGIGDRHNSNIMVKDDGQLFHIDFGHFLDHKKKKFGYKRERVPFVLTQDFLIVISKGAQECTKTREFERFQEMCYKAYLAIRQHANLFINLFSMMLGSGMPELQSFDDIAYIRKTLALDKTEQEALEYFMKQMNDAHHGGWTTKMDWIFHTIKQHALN
Experimental: as §1, §2, §3, §4, §5, §6, §7

mTOR = target: T3, mTOR (Mus musculus, UniProt Q9JLN9); assay: Cellular assay mTOR (phospho-T389 S6K1 SureFire in TSC1-/- MEF cells); type: cell-based
T3 construct: endogenous in cells; host or cells: TSC1-/- MEF (mouse embryo fibroblasts)
Description: A cell based assay (384-well format) was developed for determination of compound effects on cellular mTOR kinase activity in MEF (mouse embryo fibroblasts) cells derived from mice lacking TSC1 (Tuberosclerosis Complex1) a potent suppressor of mTOR kinase activity. Due to lack of TSC1 the mTOR kinase is constitutively activated resulting in permanent phosphorylation of Thr 389 of S6 kinase 1 (S6K1) which is one of the downstream targets of mTOR.
Using a SureFire Kit that enables to determine the phosphorylation of Thr389 on the S6K1 an assay was developed, validated and implemented in the Alpha-Screen format that allows the quantitative determination of phospho-T389 of S6K1 in cell lysates. […] These were in agreement with those values obtained with the biochemical mTOR ATP-binding assay enabling a quantitative comparison of potency of mTOR inhibitors.
TSC1−/− MEFs cells (Kwiatkowski, D. J., Zhang, H., Bandura, J. L., Heiberger, K. M., Glogauer, M., el-Hashemite, N., and Onda, H. (2002) Hum. Mol. Genet. 11, 525-534) were cultured in DMEM high glucose medium supplemented with 10% FBS (Invitrogen), 2 mM Glutamine and 1% (w/v) Penicillin/Streptomycin at 37° C., 5% CO2.
The SureFire kit for determination of P70S6kinase phosphorylation was purchased from Perkin Elmer (p70S6K p-T389, #TGR70S50K) and the assay was performed according to the instructions of the supplier and according to the generic method for SureFire assays. Shortly, 5 μL cell lysate per well were transferred to 384-well white proxy-plates (for luminescent readout) and mixed with […] and […] (final volume: 12 μL). After 3 h incubation in the dark at RT luminescence was read with the Envision Reader (Perkin Elmer). Untreated cells were used as control (high control) and cells treated with 3 μM BEZ235 were used as low control. The assay window between the signals obtained for the high and the low controls were defined as 100% and compound effects were expressed as percent inhibition. IC50 values were calculated from the dose response curves by graphical extrapolation.

[1] = biochemical, 1 μM ATP, mean of n measurements, read-out: PI3Ka/ IC50
[2] = TSC1-/- MEF cells, read-out: mTOR S6K(T389)_TSC1ko/ IC50
[3] = biochemical, 1 μM ATP, mean of n measurements
[4] = second value / 3 of the 4 values / 3 of the 5 values as per footnote, read-out: mTOR S6K(T389)_TSC1ko IC50, further individual values (footnotes)

T1 sequence (P42338 2-1070 limits assumed): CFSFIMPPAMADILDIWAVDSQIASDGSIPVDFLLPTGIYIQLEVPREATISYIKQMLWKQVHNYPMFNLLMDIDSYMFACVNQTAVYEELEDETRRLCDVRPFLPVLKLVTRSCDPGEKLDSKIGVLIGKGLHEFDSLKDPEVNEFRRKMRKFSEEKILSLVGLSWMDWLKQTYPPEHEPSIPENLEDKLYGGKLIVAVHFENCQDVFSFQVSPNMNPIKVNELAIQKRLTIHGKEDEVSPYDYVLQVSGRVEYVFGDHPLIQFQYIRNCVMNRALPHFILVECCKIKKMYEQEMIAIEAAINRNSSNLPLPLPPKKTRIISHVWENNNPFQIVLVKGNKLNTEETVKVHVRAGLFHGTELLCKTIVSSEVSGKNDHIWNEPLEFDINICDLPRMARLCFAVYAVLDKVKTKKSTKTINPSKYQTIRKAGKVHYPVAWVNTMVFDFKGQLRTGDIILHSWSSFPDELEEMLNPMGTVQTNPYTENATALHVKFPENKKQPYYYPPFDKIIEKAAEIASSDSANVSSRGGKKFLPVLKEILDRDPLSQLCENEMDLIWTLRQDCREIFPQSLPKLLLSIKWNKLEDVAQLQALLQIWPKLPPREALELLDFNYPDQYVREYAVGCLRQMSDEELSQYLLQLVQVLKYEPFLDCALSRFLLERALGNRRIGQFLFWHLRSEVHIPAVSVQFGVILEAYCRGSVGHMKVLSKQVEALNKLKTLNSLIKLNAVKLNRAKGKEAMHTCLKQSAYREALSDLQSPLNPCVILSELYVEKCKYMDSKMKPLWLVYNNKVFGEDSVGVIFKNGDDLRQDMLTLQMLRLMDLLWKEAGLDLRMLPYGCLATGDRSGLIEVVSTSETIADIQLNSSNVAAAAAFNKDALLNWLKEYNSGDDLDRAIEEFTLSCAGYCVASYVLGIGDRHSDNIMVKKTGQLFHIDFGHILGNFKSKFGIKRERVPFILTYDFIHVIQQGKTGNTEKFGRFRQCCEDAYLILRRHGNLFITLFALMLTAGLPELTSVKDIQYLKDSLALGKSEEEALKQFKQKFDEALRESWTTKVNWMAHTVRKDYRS

SMILES: C[C@H](O)CC1OC(=O)N(c2cc(-c3cnc(N)nc3C(F)(F)F)nc(N3CCOCC3)n2)[C@H]1C (single isomer, unassigned) [Example 25]
IC50 (human PI3Kβ): 0.011 µM
IC50 (human PI3Kα; a different, separate measurement, read-out: PI3Ka IC50, different, separate measurement (footnote)): < 0.003 µM
IC50 (human PI3Kα; [1]): 0.005 µM
IC50 (mTOR; [2]): 1.83 µM

SMILES: Nc1ncc(-c2cc(N3C(=O)O[C@H]4CCCC[C@@H]43)nc(N3CCOCC3)n2)c(C(F)(F)F)n1 [Example 4, (3aS,7aS)-3-(2′-Amino-2-morpholin-4-yl-4′-trifluoromethyl-[4,5′]bipyrimidinyl-6-yl)-hexahydro-benzooxazol-2-one]
IC50 (human PI3Kβ): 0.007 µM
PI3Ka/ IC50 (human PI3Kα; [3]): 0.014 umol I-1
IC50 (mTOR; [2]): 0.647 µM

SMILES: C[C@@H](O)C[C@H]1OC(=O)N(c2cc(-c3cnc(N)nc3C(F)(F)F)nc(N3CCOCC3)n2)[C@H]1C (single isomer, unassigned) [Example 24]
IC50 (human PI3Kβ): 0.016 µM
IC50 (human PI3Kα; [1]): 0.005 µM
IC50 (mTOR; [2]): 1.83 µM

SMILES: C[C@H]1OC(=O)N(c2cc(-c3cnc(N)nc3C(F)(F)F)nc(N3CCOCC3)n2)[C@H]1COC=O [Example 12, Formic acid (4S,5R)-3-(2′-amino-2-morpholin-4-yl-4′-trifluoromethyl-[4,5′]bipyrimidinyl-6-yl)-5-methyl-2-oxo-oxazolidin-4-ylmethyl ester]
IC50 (human PI3Kβ): 0.049 µM
PI3Ka/ IC50 (human PI3Kα; [3]): 0.030 umol I-1
IC50 (mTOR; [2]): 1.1 µM

The next lines start with the values.

IC50 (human PI3Kβ): 0.058 µM
IC50 (human PI3Kα; [1]): 0.026 µM
IC50 (mTOR; [2]): 2.3 µM
SMILES: Nc1ncc(-c2cc(N3C(=O)OC4C(O)CCC43)nc(N3CCOCC3)n2)c(C(F)(F)F)n1 (single isomer, unassigned) [Example 22B]

IC50 (human PI3Kβ): 0.012 µM
PI3Ka/ IC50 (human PI3Kα; [3]): 0.038 umol I-1
IC50 (mTOR; [2]): 1.41 µM
IC50 (mTOR; [4]): > 2.27 µM
SMILES: Nc1ncc(-c2cc(N3CCOC3=O)nc(N3CCOCC3)n2)c(C(F)(F)F)n1 [Example 11, 3-(2′-Amino-2-morpholin-4-yl-4′-trifluoromethyl-[4,5′]bipyrimidinyl-6-yl)-oxazolidin-2-one, reference compound]

IC50 (human PI3Kβ): 0.041 µM
PI3Ka/ IC50 (human PI3Kα; [3]): 0.384 umol I-1
IC50 (mTOR; [2]): 1.26 µM
IC50 (mTOR; [4]): > 2.27 µM
SMILES: Nc1ncc(-c2cc(N3C(=O)OC[C@@H]3CCO)nc(N3CCOCC3)n2)c(C(F)(F)F)n1 [Example 9, (S)-3-(2′-Amino-2-morpholin-4-yl-4′-trifluoromethyl-[4,5′]bipyrimidinyl-6-yl)-4-(2-hydroxy-ethyl)-oxazolidin-2-one]

IC50 (human PI3Kβ): 0.006 µM
PI3Ka/ IC50 (human PI3Kα; [3]): 0.008 umol I-1
IC50 (mTOR; [2]): 0.964 µM
SMILES: C[C@H]1COC(=O)N1c1cc(-c2cnc(N)nc2C(F)(F)F)nc(N2CCOCC2)n1 [Example 1, (S)-3-(2′-Amino-2-morpholin-4-yl-4′-trifluoromethyl-[4,5′]bipyrimidinyl-6-yl)-4-methyl-oxazolidin-2-one]

IC50 (human PI3Kβ): 0.02 µM
PI3Ka/ IC50 (human PI3Kα; [3]): 0.030 umol I-1
IC50 (mTOR; [2]): 0.942 µM
SMILES: C[C@H]1CN(c2cc(-c3cnc(N)nc3C(F)(F)F)nc(N3CCOCC3)n2)C(=O)O1 [Example 16, (S)-3-(2′-Amino-2-morpholin-4-yl-4′-trifluoromethyl-[4,5′]bipyrimidinyl-6-yl)-5-methyl-oxazolidin-2-one]

IC50 (human PI3Kβ): 0.018 µM
PI3Ka/ IC50 (human PI3Kα; [3]): 0.021 umol I-1
IC50 (mTOR; [2]): 0.759 µM
SMILES: CC1(CO)COC(=O)N1c1cc(-c2cnc(N)nc2C(F)(F)F)nc(N2CCOCC2)n1 (racemic) [Example 3, 3-(2′-amino-2-morpholino-4′-(trifluoromethyl)-4,5′-bipyrimidin-6-yl)-4-(hydroxymethyl)-4-methyloxazolidin-2-one]

IC50 (human PI3Kβ): 0.048 µM
IC50 (human PI3Kα; [1]): 0.006 µM
IC50 (mTOR; [2]): 1.39 µM
SMILES: Nc1ncc(-c2cc(N3C(=O)O[C@@H]4[C@@H](O)CC[C@@H]43)nc(N3CCOCC3)n2)c(C(F)(F)F)n1 (racemic) [Example 22, (3aR*,6R*,6aR*)-3-(2′-Amino-2-morpholino-4′-(trifluoromethyl)-[4,5′-bipyrimidin]-6-yl)-6-hydroxyhexahydro-2H-cyclopenta[d]oxazol-2-one]
